Measurements reported in patent publication EP3061750A1, “PYRAZOLE AMIDE COMPOUND CONTAINING DIPHENYL ETHER, AND APPLICATION THEREOF, AND PESTICIDE COMPOSITION” (Central China Normal University, priority 2013, dated 2015).
Read-outs that look alike come from different tables or passages of the source.

Key:
[1] = system: Cucumber powdery mildew (Sphaerotheca uliginea); test: pot in vivo assay of bactericidal activity, cucumber powdery mildew; settings: Cucumis sativus, read-out: Efficacy(%) cucumber powery mildew
Excerpt: (§1) This test is used to determine the bactericidal activity of the compounds prepared in Example 1, Preparation Examples 1 and 2.
(§2) The targets used in the test example are rice sheath blight and cucumber powdery mildew.
(§3) Test Method: According to "Standard Practice for determination of pesticide biological activity (SOP)", pyrazole amide compound containing diphenyl ether was dispensed to 5% emulsifiable concentrates (hereinafter referred to as 5% EC), […] method (pot in vivo assay). The screening results on the two test targets of the compounds prepared in Example 1, Preparation Examples 1 and 2 were shown in Table 4.
Cucumber powdery mildew (Sphaerotheca uliginea)
A cucumber seedling with uniform growth in true leaf stage was chosen, and dried in shade for 24h after spray treatment. Fresh cucumber powdery mildew spores on the cucumber leaves were collected and washed, and filtered through a double gauze to prepare a spore suspension with concentration of about 100,000 / ml, then spray inoculation was applied. The test materials inoculated were moved into artificial climate with relative humidity of 60-70% and temperature of 21-23 °C (indoor lighting), after about 10 days, investigating and grading were carried out according to the incidence of the blank control, and the control effect was calculated according to the disease index.
(§4) Investigation method and grading standard adopted "Guidelines for the field efficacy trials of pesticides", and the control effect was calculated with the disease index. The disease index = Σ(number of diseased leaves at each grade×relative grade value) × 100/(total number of leaves×9); [formula] Control effect (%) = (disease index of control−disease index of treated) × 100/disease index of control. [formula]

[2] = system: Rice sheath blight (Rhizoctonia solani); test: pot in vivo assay of bactericidal activity, rice sheath blight; settings: Rhizoctonia solani, read-out: Efficacy(%) rice sheath blight
Excerpt: as §1, §2
as §3, with “EC), the” for “EC),”
Rice sheath blight (Rhizoctonia solani)
Two potted rice seedlings with uniform growth in true leaf stage were chosen, and dried by air after spray treatment. The side of bacteria cake with mycelium was closely attached on the leaves, after cultured at 22-26 °C under dark light in a moisture preserving manner for 24h, then cultured with natural light for about 4 days. The diameter of disease spot of each inoculating point was measured by using a caliper after the control material was fully attacked by disease, and the control effect was calculated.
as §4

succinate dehydrogenase = molecular target: T1, succinate dehydrogenase (Sus scrofa, UniProt A5GZW8+D0VWV4+Q007T0); test: inhibitory activity on succinate dehydrogenase (DCIP reduction at 600 nm); type: biochemical, pig
T1 construct: succinate dehydrogenase, which was isolated from pig hearts; from tissue; host or cells: pig heart
T1 sequence (Q007T0 29-280): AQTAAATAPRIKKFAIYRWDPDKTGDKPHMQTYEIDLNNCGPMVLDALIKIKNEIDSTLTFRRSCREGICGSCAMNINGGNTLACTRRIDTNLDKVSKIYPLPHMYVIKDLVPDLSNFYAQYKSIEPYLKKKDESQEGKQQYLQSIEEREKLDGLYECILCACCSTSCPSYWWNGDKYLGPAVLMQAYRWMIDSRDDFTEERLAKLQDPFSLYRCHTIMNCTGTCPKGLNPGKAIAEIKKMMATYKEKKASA
T1 sequence (D0VWV4 30-169): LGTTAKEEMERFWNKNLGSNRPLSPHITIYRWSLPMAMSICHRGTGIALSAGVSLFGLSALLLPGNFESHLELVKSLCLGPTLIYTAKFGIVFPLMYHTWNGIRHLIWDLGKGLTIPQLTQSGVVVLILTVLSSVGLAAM
T1 sequence (A5GZW8 57-159 limits assumed): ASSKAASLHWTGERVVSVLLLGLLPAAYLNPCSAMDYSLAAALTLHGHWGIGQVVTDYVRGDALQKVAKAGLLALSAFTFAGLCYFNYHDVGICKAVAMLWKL
T1 sequence (Q0QF01 43-664 partner): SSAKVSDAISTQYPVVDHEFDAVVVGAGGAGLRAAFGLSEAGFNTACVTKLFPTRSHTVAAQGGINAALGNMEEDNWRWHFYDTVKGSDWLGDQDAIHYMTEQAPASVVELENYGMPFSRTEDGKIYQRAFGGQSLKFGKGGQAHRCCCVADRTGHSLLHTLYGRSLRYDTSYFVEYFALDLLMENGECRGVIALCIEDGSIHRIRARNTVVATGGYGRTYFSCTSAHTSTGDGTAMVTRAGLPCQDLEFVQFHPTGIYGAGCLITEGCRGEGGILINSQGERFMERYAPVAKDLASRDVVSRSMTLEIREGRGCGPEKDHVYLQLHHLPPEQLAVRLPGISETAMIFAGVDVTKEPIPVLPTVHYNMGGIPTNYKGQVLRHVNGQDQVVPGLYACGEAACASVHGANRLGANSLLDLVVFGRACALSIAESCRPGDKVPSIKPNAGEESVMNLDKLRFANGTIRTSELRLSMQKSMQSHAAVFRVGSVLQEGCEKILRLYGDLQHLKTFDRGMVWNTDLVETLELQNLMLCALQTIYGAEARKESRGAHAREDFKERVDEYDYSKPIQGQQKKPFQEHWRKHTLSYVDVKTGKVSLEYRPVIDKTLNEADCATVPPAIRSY
Description: This test was used to determine the inhibitory activity on the succinate dehydrogenase of the compounds prepared in Example 1, Preparation Examples 1 and 2 .
The enzyme used in the test example was succinate dehydrogenase, which was isolated from pig hearts.
Test Method: total volume was 1.8ml, the system comprised 100mM Na2HPO4-NaH2PO4 buffer (pH7.4), 0.3mM EDTA, 20mM sodium succinate, 53µM DCIP (2,6-dichloro indophenol sodium), 2nM succinate dehydrogenase. In water bath with 23 °C of constant temperature and 600rpm magnetic stirring, the reduction of the light absorption of substrate DCIP was monitored at a wavelength of 600nm, the experimental points within the linear range were collected, that is, the experimental points in which the consumption of substrate was controlled not exceeding 5% were collected. The molar extinction coefficient of DCIP was 21mM^-1cm^-1. The reduction amount of DCIP during the reaction time was calculated and linear slope was fitted, and then the initial velocity of the reaction was obtained by deducting the baseline slope.

Structure (SMILES)	pest or weed control at 200 µg/mL [1]	pest or weed control at 200 µg/mL [2]	IC50 (succinate dehydrogenase)	also measured
COc1cc(Oc2ccccc2NC(=O)c2cn(C)nc2C(F)F)cc(OC)c1OC [III-5]	0%	0%	> 100 µM	–
Cc1cccc(Oc2ccccc2NC(=O)c2cn(C)nc2C(F)(F)F)c1C [III-13]	0%	63.2%	9.86 ± 1.27 µM	–
Cn1cc(C(=O)Nc2ccccc2Oc2cccc(Cl)c2)c(C(F)(F)F)n1 [III-1]	22.2%	68.6%	36.9 ± 1.47 µM	–
Cn1cc(C(=O)Nc2ccccc2Oc2ccccc2)c(C(F)(F)F)n1 [Comparative compound 12, reference compound]	0%	30.9%	19.8 ± 1.07 µM	inhibition at 1 µM (succinate dehydrogenase; read-out: inhibition ratio(%)): 0%; inhibition at 5 µM (succinate dehydrogenase; read-out: inhibition ratio(%)): 10%; inhibition at 10 µM (succinate dehydrogenase; read-out: inhibition ratio(%)): 22.3%; inhibition at 20 µM (succinate dehydrogenase; read-out: inhibition ratio(%)): 38%; inhibition at 30 µM (succinate dehydrogenase; read-out: inhibition ratio(%)): 50.3%; inhibition at 50 µM (succinate dehydrogenase; read-out: inhibition ratio(%)): 61.8%
Cn1cc(C(=O)Nc2ccccc2Oc2ccc(Cl)cc2)c(C(F)(F)F)n1 [III-9]	0%	66.3%	–	IC50 (succinate dehydrogenase; succinate dehydrogenase isolated from pig hearts, pH7.4, 23 °C): 4.9 ± 1.28 µM
Cc1cccc(Oc2ccccc2NC(=O)c2cn(C)nc2C(F)F)c1C [III-14]	0%	65.9%	3.22 ± 1.33 µM	–
Cc1cc(C)cc(Oc2ccccc2NC(=O)c2cn(C)nc2C(F)F)c1 [III-16]	0%	50%	2.03 ± 1.22 µM	–
Cc1cc(C)cc(Oc2ccccc2NC(=O)c2cn(C)nc2C(F)(F)F)c1 [III-15]	0%	55.2%	5.12 ± 1.04 µM	–
Cn1cc(C(=O)Nc2ccccc2Oc2ccc(C#N)cc2)c(C(F)(F)F)n1 [III-6]	0%	30.2%	–	IC50 (succinate dehydrogenase; cells printed as "-" (footnote)): > 100 µM
Cn1cc(C(=O)Nc2ccccc2Oc2ccc(F)cc2)c(C(F)(F)F)n1 [III-3]	0%	57%	> 100 µM	–
